Reference: patent US20040006070A1, “Intraspinal continuous infusion of midazolam hydrochloride for the treatment of pain” (priority 2002, published 2004)
Where “and” joins values, the source holds several entries; their conditions need not be identical. Identical values can stand only once. Entries after “also recorded” stand apart in the source; their conditions may differ. Counter-ions that a name gives are not always drawn.

What was measured:
[1] = Physiological data: indirect blood pressure, pulse, rectal temperature, weight; format: in vivo, sheep
From the text: Daily rectal temperatures were taken and any behavioral/motor changes were noted. Gait monitoring will be conducted as described below based on a four-grade scale for the evaluation of behavioral and motor changes. Grade 0: animal standing, sheep is able to rise and ambulate without any difficulty. Grade 1: Shuffling of either rear leg or slight limp; slight distortion of normal spinal axis. Grade 2: Loss of righting reflex in one of the rear legs, sheep able to stand without assistance, but with some difficulty. Grade 3: Inability to maintain standing posture; attempts to help animal stand are unsuccessful.
Indirect blood pressure, pulse recording, pain testing (mechanical stimulus device, cold and warm water baths see description in procedure) and weight were taken on days 1, 3, 7, 15, 22, 29, 36, and 43. Venous blood samples (15 ml drawn from the jugular vein with Vacutainer brand blood collection tubes) for complete blood count, electrolytes, and extended blood chemistry were drawn on days 1, 15, and 43 (mild procedure only light hand restraint necessary).

[2] = Toxicity of continuous intrathecal infusion in acute pain sheep: clinical symptoms, necropsy, histology; format: in vivo
Procedure: The inventors have completed a toxicity and efficacy study of intrathecal midazolam hydrochloride in 15 sheep instrumented with Medtronic SynchroMed® infusion systems. The surgical procedure and the hardware used in these animals was analogous to that utilized in humans. The first sheep was tested for toxicity only (3 mg/day), and all subsequent animals tested for both toxicity and analgesic activity.
Open-label (known dose) trial: A trial with known midazolam doses was performed in the first 7 sheep. Animals were administered 3 mg/day (N=1), 5 mg/day (N=1), 10 mg/day (N=1), and 15 mg/day (N=4) for 43 days. These doses were chosen based upon previous intrathecal bolus dose studies in rats and humans, with conversion of from species to species based on cerebral spinal fluid (CSF) production rate and total CSF volume. Analgesic activity was assessed using a mechanical stimulus device which produces a stimulus of acute pain by application of force via a blunt needle applied to the shaved front foreleg of the animal. Force is applied with increasing pressure until the animal lifts its leg in response to the painful stimulus. To evaluate the analgesic effect of midazolam, response latencies were expressed as a percentage of the maximum possible effect, % MPE. The response latency is defined as follows: [formula]
On day 43 after venous blood samples were taken, animals were euthanized (Beuthanasia 1 ml/4.5 kg IV bolus injection). CSF samples were obtained for analysis (1-2 ml drawn from L-7/S-1 after a laminectomy was performed to expose the dura) of glucose, total protein, and cell differential.

[3] = Toxicity testing of midazolam in the pig model, closed label (swine data); format: in vivo
Procedure: Another closed label study was performed in pigs. This study was performed in response to implications of possible species-related toxicity reported by researchers in Turkey and France (Malinovsky et al., 1991; Svensson et al., 1995; Erdine et al, 1999). […] Rats were administered single or multiple bolus doses for 20 days. Rabbits were administered bolus injections of 0.1% midazolam (pH 3.3) in 0.3 ml or preservative-free midazolam (pH 3.5) in 0.3 ml for one day or five consecutive days. To further assess the safety of spinally administered midazolam by continuous infusion in a second species, three pigs were instrumented with Medtronic SynchroMed® intrathecal infusion systems. Pigs were administered 15 mg/day (N=2), or saline control (N=1).

[4] = rat, single or multiple intrathecal bolus doses for 20 days; cited from earlier work
[5] = double blinded sheep Chicken Hawk #87, 5 mg/day intrathecal infusion, day (1-43), hydrochloride
[6] = double blinded sheep Elmer Fudd #437, 5 mg/day intrathecal infusion, day (1-43), hydrochloride
[7] = double blinded sheep Leghorn II #815, 15 mg/day intrathecal infusion, day (1-43), hydrochloride
[8] = double blinded sheep Petunia #439, 15 mg/day intrathecal infusion, day (1-43), hydrochloride
[9] = double blinded sheep Porky #402, 5 mg/day intrathecal infusion, day (1-43), hydrochloride
[10] = double blinded sheep Roadrunner #84, 15 mg/day intrathecal infusion, day (1-43), hydrochloride
[11] = open label sheep #457 Tazz, 15 mg/day intrathecal infusion, day (1-43), hydrochloride
[12] = open label sheep #498 Toad, 10 mg/day intrathecal infusion, day (1-43), hydrochloride
[13] = open label sheep #518 Sandy, 5 mg/day intrathecal infusion, day (1-43), hydrochloride
[14] = open label sheep Dot #85, 15 mg/day intrathecal infusion, day (1-43), hydrochloride
[15] = open label sheep Wacko #83, 15 mg/day intrathecal infusion, day (1-43), hydrochloride
[16] = open label sheep Yacko #91, 15 mg/day intrathecal infusion, day (1-43), hydrochloride
[17] = double blinded sheep Chicken Hawk #87, 5 mg/day, 43 days
[18] = double blinded sheep Elmer Fudd #437, 5 mg/day, 43 days
[19] = double blinded sheep Leghorn II #815, 15 mg/day, 43 days
[20] = double blinded sheep Petunia #439, 15 mg/day, 43 days
[21] = double blinded sheep Porky #402, 5 mg/day, 43 days
[22] = double blinded sheep Roadrunner #84, 15 mg/day, 43 days
[23] = open label sheep Dot #85, 15 mg/day, 43 days
[24] = open label sheep Wacko #83, 15 mg/day, 43 days
[25] = open label sheep Yacko #91, 15 mg/day, 43 days
[26] = CSF, individual pigs, 15 mg, hydrochloride
[27] = individual pigs, Drug Dose 15 mg, hydrochloride
[28] = pigs, 15 mg/day continuous intrathecal infusion (N=2)

Cc1ncc2n1-c1ccc(Cl)cc1C(c1ccccc1F)=NC2 [Midazolam, midazolam hydrochloride]
Blood pressure Dia [1, 5]: 62 and 37 and 53 and 51 and 44 and 65 and 69 and 48
Blood pressure Sys [1, 5]: 112 and 127 and 122 and 132 and 130 and 126 and 151
Body Temp. Normal 101.3-104.0 [1, 5]: 102.4 and 102.6 and 102.8 and 102.2 and 102.0
Pulse Rate Normal 55-115 [1, 5]: 75 and 83 and 63 and 101 and 79 and 88 and 84 and 82
Blood pressure Sys [1, 6]: 122 and 138 and 119 and 131 and 150 and 136 and 139 and 120
Body Temp. Normal 101.3-104.0 [1, 6]: 102.2 and 102.8 and 101.4 and 102.0 and 101.8
Pulse Rate Normal 55-115 [1, 6]: 87 and 70 and 80 and 83 and 79 and 73 and 85
Blood pressure Sys [1, 7]: 130 and 152 and 143 and 160 and 138 and 145
Body Temp. Normal 101.3-104.0 [1, 7]: 104.2 and 102.4 and 102.8 and 102.2 and 102.6
Pulse Rate Normal 55-115 [1, 7]: 111 and 144 and 88 and 125 and 121 and 97 and 89 and 87
Blood pressure Dia [1, 8]: 34 and 49 and 44 and 32 and 26 and 45
Blood pressure Sys [1, 8]: 133 and 152 and 126 and 132 and 123 and 114 and 120 and 142
Body Temp. Normal 101.3-104.0 [1, 8]: 102.0 and 102.8 and 103.0 and 101.0 and 102.4
Pulse Rate Normal 55-115 [1, 8]: 89 and 72 and 74 and 69 and 66 and 63 and 71 and 90
Blood pressure Dia [1, 9]: 65 and 70 and 42 and 67 and 55 and 68 and 41 and 40
Blood pressure Sys [1, 9]: 148 and 107 and 140 and 133 and 113 and 135 and 134 and 147
Body Temp. Normal 101.3-104.0 [1, 9]: 102.0 and 102.6 and 101.0 and 101.2 and 102.2
Pulse Rate Normal 55-115 [1, 9]: 87 and 99 and 89 and 100 and 90 and 86 and 108
Blood pressure Dia [1, 10]: 75 and 77 and 49 and 42 and 50 and 51 and 40
Blood pressure Sys [1, 10]: 137 and 124 and 132 and 116 and 144
Body Temp. Normal 101.3-104.0 [1, 10]: 101.8 and 101.6 and 102.2 and 104.0 and 102.4 and 102.0 and 102.6
Pulse Rate Normal 55-115 [1, 10]: 90 and 97 and 104 and 78 and 94 and 130 and 124 and 77
Blood pressure Dia [1, 11]: 83 and 71 and 68 and 70 and 73 and 88
Blood pressure sys [1, 11]: 151 and 154 and 145 and 147 and 135
Body Temp. Normal 101.3-104.0 [1, 11]: 100.8 and 102.2 and 103.0 and 102.0
Pulse Rate Normal 55-115 [1, 11]: 138 and 77 and 74 and 76 and 79 and 82
Blood pressure Dia [1, 12]: 98 and 73 and 66 and 109 and 71 and 59 and 58
Blood pressure Sys [1, 12]: 177 and 143 and 136 and 156 and 153 and 118 and 149
Body Temp. Normal 101.3-104.0 [1, 12]: 102.0 and 104.2 and 102.8 and 102.4 and 101.8 and 103.0 and 103.2
Pulse Rate Normal 55-115 [1, 12]: 98 and 79 and 95 and 77 and 104 and 67 and 89 and 78
Blood pressure Sys [1, 13]: 180 and 150 and 141 and 152 and 147 and 169 and 164 and 185
Body Temp. Normal 101.3-104.0 [1, 13]: 102.0 and 101.0 and 101.8 and 101.6 and 102.8
Blood pressure Dia [1, 14]: 68 and 49 and 67 and 59 and 53 and 77 and 57 and 69
Blood pressure Sys [1, 14]: 128 and 109 and 110 and 133 and 130 and 120 and 155
Pulse Rate Normal 55-115 [1, 14]: 92 and 89 and 86 and 117 and 85 and 72 and 66 and 71
Blood pressure Dia [1, 15]: 60 and 45 and 47 and 42 and 51 and 66 and 73 and 70
Blood pressure Sys [1, 15]: 148 and 166 and 130 and 106 and 102 and 132 and 163 and 128
Body Temp. Normal 101.3-104.0 [1, 15]: 102.0 and 102.4 and 102.6
Pulse Rate Normal 55-115 [1, 15]: 104 and 98 and 91 and 92 and 99 and 84 and 75
Blood pressure Sys [1, 16]: 138 and 143 and 156 and 110 and 151 and 160 and 149
Pulse Rate Normal 55-115 [1, 16]: 115 and 80 and 84 and 86 and 72 and 82 and 66 and 69
Blood pre-assure ([1]; sheep Rowdy #819, 10 mg): 136/75
Pulse ([1]; sheep Rowdy #819, 10 mg): 122
Blood pre-assure ([1]; sheep Rowdy #819, 15 mg): 143/77
Pulse ([1]; sheep Rowdy #819, 15 mg): 94
Respirations per minute ([1]; sheep Rowdy #819, 15 mg): 40 per minute
inflammatory lesions ([2]; any sheep receiving midazolam alone in the acute pain sheep study): no significant inflammatory lesions were observed
behavioral, toxicological, or histopathologic changes related to the infusion ([2]; closed label sheep, continuous infusion 5 or 15 mg/day): did not produce any behavioral, toxicological, or histopathologic changes
Histology [2, 17]: mild catheter reaction
Necropsy [2, 17]: no gross lesions noted
Histology [2, 18]: mild catheter reaction
Necropsy [2, 18]: no gross lesions noted
Histology [2, 19]: mild catheter reaction
Necropsy [2, 19]: No obvious lesions where detected
Histology [2, 20]: mild catheter reaction
Necropsy [2, 20]: no gross lesions noted
Histology [2, 21]: mild catheter reaction
Necropsy [2, 21]: no gross lesions noted
Histology [2, 22]: mild catheter reaction
Necropsy [2, 22]: no gross lesions noted
clinical symptoms ([2]; open label sheep #457 Tazz, 15 mg/day, 43 days): No clinical symptoms
clinical symptoms ([2]; open label sheep #498 Toad, 10 mg/day, 43 days): No clinical symptoms
clinical symptoms ([2]; open label sheep #518 Sandy, 5 mg/day, 43 days): No clinical symptoms
Histology [2, 23]: mild catheter reaction
Necropsy [2, 23]: no gross lesions noted
Histology [2, 24]: mild catheter reaction
Necropsy [2, 24]: no gross lesions noted
Histology [2, 25]: mild catheter reaction
Necropsy [2, 25]: no gross lesions noted
behavioral, toxicological, or histopathologic changes related to the infusion ([2]; open label sheep, continuous infusion 3-15 mg/day, 43 days): did not produce any behavioral, toxicological, or histopathologic changes
Routine Cultures Post Mortum ([3]; CSF, individual pigs, 15 mg, cell wraps 'No' / 'Growth'): No
Glucose Post Mortum [3, 26]: 11 mg/dL and 31 mg/dL
Gross Exam Post Mortum [3, 26]: Colorless; also recorded: cloudy; also recorded: clear
RBC Count Post Mortum [3, 26]: 1,350 /ul and 0 /ul
Total Protein Post Mortum [3, 26]: 73 mg/dL and 39 mg/dL
WBC Count Post Mortum [3, 26]: 888 µL⁻¹ and 117 µL⁻¹
clinical symptoms ([3]; individual pigs, Drug Dose 15 mg): none
Final Weight [3, 27]: 147 and 170
Histopathological Changes [3, 27]: Most foreign body reaction in all the pigs; also recorded: The least foreign body reaction in all the pigs. The spinal reaction
clinical or gross changes at necropsy [3, 28]: No clinical or gross changes at necropsy were observed
histology, toxicity related to the infusion [3, 28]: no evidence of toxicity related to the midazolam infusion
neurotoxicity [4]: neurotoxicity
